Data as given in ChEMBL document CHEMBL1201862, “PubChem BioAssay data set” (2004).
Activity calls are given as the source filed them.

How the values were obtained:
[1] = target: ADP-ribosylation factor GTPase-activating protein 1 (Rattus norvegicus, UniProt Q62848); test: Fluorescence polarization-based biochemical high throughput dose response screening assay to identify inhibitors of ADP-ribosylation factor GTPase activating protein 1 (ARFGAP1).; format: functional
[2] = Counterscreen for inhibitors of Trypanosoma brucei methionyl tRNA synthetase (MetRS): Luminescence-based cell-based high throughput dose response assay to identify compounds that are cytotoxic to Jurkat human T lymphocyte cells.; format: functional
[3] = target: T1, Methionyl-tRNA synthetase, putative (Trypanosoma brucei brucei, UniProt Q38C91); format: functional, Trypanosoma brucei brucei strain 927/4 GUTat10.1
[4] = system: Streptococcus sp. 'group A'; test: growth inhibition of control SK(-) GAS strain, dose response, counter-screen for streptokinase expression inhibitor project, luminescence, kanamycin, BacTiterGlo, confirmation (AID 1900); format: functional, organism-based
Streptokinase A = target: T2, Streptokinase A (Streptococcus pyogenes serotype M1, UniProt P10520); test: S. pyogenes streptokinase expression inhibitors, potency, dose response, plasminogen activation absorbance, OD405 (AID 1914); format: functional, Streptococcus pyogenes M1 GAS;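 note: secreted streptokinase activity via plasminogen activation per viability signal from cell pellet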
T2 sequence (P10520 whole entry): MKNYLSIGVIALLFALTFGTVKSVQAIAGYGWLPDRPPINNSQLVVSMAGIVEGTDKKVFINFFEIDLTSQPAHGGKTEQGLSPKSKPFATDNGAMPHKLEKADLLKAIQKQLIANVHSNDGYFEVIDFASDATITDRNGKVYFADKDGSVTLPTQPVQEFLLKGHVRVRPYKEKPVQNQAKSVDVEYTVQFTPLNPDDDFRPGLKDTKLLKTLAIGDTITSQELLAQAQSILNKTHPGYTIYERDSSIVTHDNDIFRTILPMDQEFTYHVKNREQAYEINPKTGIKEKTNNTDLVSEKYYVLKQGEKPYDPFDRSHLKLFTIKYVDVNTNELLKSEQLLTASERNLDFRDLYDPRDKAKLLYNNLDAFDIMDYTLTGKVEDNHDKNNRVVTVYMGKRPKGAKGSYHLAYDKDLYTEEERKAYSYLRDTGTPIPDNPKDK

[5] = inhibitors of intracellular T. cruzi replication, confirmation, NIH3T3 host cells, beta-gal luminescence (AID 2044); format: functional, cell-based;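 note: intracellular parasites grown in NIH/3T3 mouse fibroblasts as host cells; luminescent beta-galactosidase reporter signal from transgenic T. cruzi replicating inside host cells; inhibitors lower the luminescence signal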
[6] = growth suppression of PTEN-null colon cells, dose response, cell-based, HCT116 PTEN knockout (AID 1047); format: functional;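 note: HCT116 colon tumor cells with PTEN knocked out; cells exposed to compound for 60 hours before readout; potency for loss of cell viability measured by luminescence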
[7] = cytotoxicity toward NIH3T3 fibroblasts, dose response, counter-screen, cell-based, ATP luminescence, mouse fibroblasts (AID 2010); format: functional;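 note: cells exposed to compound for about 90 hours before reading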
[8] = target: T1, Methionyl-tRNA synthetase, putative; format: functional, Trypanosoma brucei brucei strain 927/4 GUTat10.1; remark: listed apart in the source
[9] = target: T3, Calpain-2 catalytic subunit (Sus scrofa, UniProt P43367); test: pig calpain II inhibitor potency, dose response, biochemical, fluorogenic peptide substrate (AID 1420); format: functional
T3 sequence (P43367 whole entry): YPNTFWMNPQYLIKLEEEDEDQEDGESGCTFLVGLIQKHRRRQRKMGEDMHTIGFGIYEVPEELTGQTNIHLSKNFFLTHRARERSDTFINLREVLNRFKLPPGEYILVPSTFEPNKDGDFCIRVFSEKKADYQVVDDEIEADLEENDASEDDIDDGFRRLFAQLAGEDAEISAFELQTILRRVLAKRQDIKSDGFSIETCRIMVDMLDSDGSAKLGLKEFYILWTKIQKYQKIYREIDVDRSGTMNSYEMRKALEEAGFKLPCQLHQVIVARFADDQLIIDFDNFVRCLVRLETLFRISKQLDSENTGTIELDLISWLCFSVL

Streptococcus = test: Group A Streptococcus viability loss, dose response, counter-screen for streptokinase expression inhibitor project, luminescence, BacTiterGlo (AID 1915); format: functional, organism-based;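 note: potency for reduction of bacterial viability or growth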
[10] = growth suppression of beta-catenin-knockout colon cells, dose response, cell-based, HCT116, human colon tumor (AID 1045); format: functional;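 note: HCT116 colon tumor cells with beta catenin knocked out; cells exposed to compound for 60 hours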
Cytochrome P450 1A2 = target: T4, Cytochrome P450 1A2 (Homo sapiens, UniProt P05177);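 note: PubChem cytochrome P450 panel assay, CYP1A2 panel member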
T4 sequence (P05177 whole entry): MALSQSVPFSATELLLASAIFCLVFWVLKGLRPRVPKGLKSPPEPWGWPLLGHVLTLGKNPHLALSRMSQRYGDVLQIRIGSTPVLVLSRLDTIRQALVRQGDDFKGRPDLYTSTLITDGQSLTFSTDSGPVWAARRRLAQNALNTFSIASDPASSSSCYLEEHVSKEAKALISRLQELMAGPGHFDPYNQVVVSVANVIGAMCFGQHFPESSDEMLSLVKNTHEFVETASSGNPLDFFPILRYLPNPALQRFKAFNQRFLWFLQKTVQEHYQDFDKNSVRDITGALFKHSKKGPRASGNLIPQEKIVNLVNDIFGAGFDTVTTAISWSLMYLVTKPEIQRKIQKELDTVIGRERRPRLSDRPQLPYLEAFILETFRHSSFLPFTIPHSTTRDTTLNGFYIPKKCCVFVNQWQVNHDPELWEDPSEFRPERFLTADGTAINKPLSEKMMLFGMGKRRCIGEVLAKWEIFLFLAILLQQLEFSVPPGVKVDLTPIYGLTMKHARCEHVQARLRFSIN

Vero = test: West Nile virus antiviral activity, cell-based, CPE readout (AID 1621); format: functional; details: Chlorocebus sabaeus
[11] = Shn3 3'UTR reporter inhibitors, dose response, cell-based, Clone20 osteoblasts, firefly luciferase, cherry-picked (AID 624132); format: functional;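 note: firefly luciferase luminescence from reporter carrying the Shn3 3'UTR in osteoblasts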
[12] = inhibitors of SNCA 5'UTR-driven reporter translation, confirmation, H4 neuroglioma cells, luminescence (AID 1988); format: functional, cell-based
[13] = Luminescence Cell-Based Dose Response HTS to Identify Inhibitors of 5'UTR Stem-Loop Driven Prion Protein mRNA Translation in H4 Neuroglioblastoma Cells. [Related pubchem assays: 1827 (Project Summary), 1813 (Primary HTS)]; format: functional
[14] = target: Photoreceptor-specific nuclear receptor (Homo sapiens, UniProt Q9Y5X4); format: functional, cell-based;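 note: CHO-S cells with Gal4-NCOR and VP16-NR2E3 two-hybrid luciferase reporter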
[15] = HepG2 cell cytotoxicity, dose response, cytotoxicity control for Shn3 inhibitor project, CellTiter-Glo, cherry-picked (AID 624134); format: functional, cell-based
[16] = control 3'UTR Renilla luciferase suppression, dose response, counter-screen for Shn3 inhibitor project, cell-based, Clone20-Shn3RL, cherry-picked (AID 624133); format: functional
[17] = inhibitors of firefly luciferase expression or activity, dose response, H4 neuroglioma cells, luminescence (AID 1990); format: functional, cell-based
[18] = target: T5, Sentrin-specific protease 1 (Homo sapiens, UniProt Q9P0U3); test: potency of human SENP1 inhibitors, dose response, biochemical, kinetic FRET (AID 651697); format: functional; details: read-out: IC50_Mean
[19] = target: T5, Sentrin-specific protease 1; test: Dose response confirmation of small molecule inhibitors of the catalytic domain of the SUMO protease, SENP1 in a FRET assay.; format: functional; details: read-out: IC50_Mean
[20] = target: T6, Endoribonuclease toxin MazF (Escherichia coli K-12, UniProt P0AE70); test: fluorescent RNA oligo signal without MazF, dose response, counter-screen for MazEF activator project, biochemical, fluorescence, single-stranded RNase substrate (AID 588502); format: functional
T6 sequence (P0AE70 whole entry): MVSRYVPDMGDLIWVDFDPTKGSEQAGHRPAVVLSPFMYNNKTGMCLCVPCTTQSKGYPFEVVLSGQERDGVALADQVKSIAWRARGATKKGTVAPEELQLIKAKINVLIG

[21] = target: T6, Endoribonuclease toxin MazF; test: MazF toxin RNase activators, dose response, biochemical, fluorescence, single-stranded RNA substrate, uHTS hits (AID 588481); format: functional
[22] = target: T7, DNA repair and recombination protein RAD54-like (Homo sapiens, UniProt Q92698); test: inhibitors of human RAD54 branch migration, confirmation, biochemical, fluorescence, cherry-picked samples, dose series (AID 651657); format: functional
T7 sequence (Q92698 whole entry): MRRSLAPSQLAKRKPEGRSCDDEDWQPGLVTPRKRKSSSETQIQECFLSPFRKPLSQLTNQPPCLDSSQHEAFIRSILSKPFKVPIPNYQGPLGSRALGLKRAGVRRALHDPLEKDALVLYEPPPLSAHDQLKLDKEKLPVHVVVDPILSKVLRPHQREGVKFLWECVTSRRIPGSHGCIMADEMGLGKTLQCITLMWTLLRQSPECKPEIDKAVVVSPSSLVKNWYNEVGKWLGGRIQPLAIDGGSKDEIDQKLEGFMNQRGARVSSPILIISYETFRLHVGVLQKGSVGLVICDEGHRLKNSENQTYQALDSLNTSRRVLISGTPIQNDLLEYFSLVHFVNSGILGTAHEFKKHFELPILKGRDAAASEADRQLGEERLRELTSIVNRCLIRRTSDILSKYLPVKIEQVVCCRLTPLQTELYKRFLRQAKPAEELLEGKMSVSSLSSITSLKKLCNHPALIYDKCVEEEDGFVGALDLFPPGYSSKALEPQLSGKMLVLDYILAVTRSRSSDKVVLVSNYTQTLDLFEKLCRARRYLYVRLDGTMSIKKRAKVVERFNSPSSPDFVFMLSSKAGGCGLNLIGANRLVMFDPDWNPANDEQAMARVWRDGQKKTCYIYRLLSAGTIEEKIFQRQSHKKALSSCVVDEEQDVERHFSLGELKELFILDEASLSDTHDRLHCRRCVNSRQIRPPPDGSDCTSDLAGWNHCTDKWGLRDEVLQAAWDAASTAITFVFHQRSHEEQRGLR

[23] = target: T8, Low molecular weight phosphotyrosine protein phosphatase (Homo sapiens, UniProt P24666); format: functional; details: read-out: IC50_Mean
[24] = target: SWI/SNF-related matrix-associated actin-dependent regulator of chromatin subfamily A member 2 (Homo sapiens, UniProt P51531); test: Luminescence-based cell-based high throughput dose response assay to identify activators of the function of SWI/SNF related, matrix associated, actin dependent regulator of chromatin, subfamily a, member 2 (SMARCA2, BRM).; format: functional
[25] = Counterscreen for activators of the function of SWI/SNF related, matrix associated, actin dependent regulator of chromatin, subfamily a, member 2 (SMARCA2, BRM): Luminescence-based cell-based high throughput dose response assay to identify non-selective compounds using the VP16 reporter assay.; format: functional
[26] = target: T9, DNA repair protein RAD52 homolog (Homo sapiens, UniProt P43351); format: functional, biochemical
T9 sequence (P43351 whole entry): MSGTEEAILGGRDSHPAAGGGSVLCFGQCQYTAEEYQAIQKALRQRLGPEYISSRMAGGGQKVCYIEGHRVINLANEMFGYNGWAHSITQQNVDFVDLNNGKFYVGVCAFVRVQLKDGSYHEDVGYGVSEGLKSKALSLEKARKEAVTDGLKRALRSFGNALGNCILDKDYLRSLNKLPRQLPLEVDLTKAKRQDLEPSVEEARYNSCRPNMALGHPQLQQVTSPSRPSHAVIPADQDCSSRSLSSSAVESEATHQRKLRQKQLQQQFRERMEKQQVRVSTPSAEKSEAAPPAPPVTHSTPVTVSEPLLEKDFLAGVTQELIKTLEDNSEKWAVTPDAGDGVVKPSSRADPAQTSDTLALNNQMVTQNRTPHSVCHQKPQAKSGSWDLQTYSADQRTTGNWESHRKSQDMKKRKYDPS

[27] = target: T8, Low molecular weight phosphotyrosine protein phosphatase; format: functional; details: read-out: IC50_Mean; remark: listed apart in the source
[28] = target: Tyrosine-protein phosphatase non-receptor type 22 (Homo sapiens, UniProt Q9Y2R2); test: LYP phosphatase inhibition for selectivity, dose response, selectivity assay for LMPTP inhibitor project, biochemical, fluorescence, LYP catalytic domain (AID 652006); format: functional; details: read-out: IC50_Mean
Steroidogenic factor 1 = Steroidogenic factor 1 (Homo sapiens, UniProt Q13285); test: Counterscreen for inverse agonists of the liver receptor homolog-1 (LRH-1; NR5A2): Luminescence-based cell-based high throughput dose response assay to identify inverse agonists of the Steroidogenic Factor 1 Nuclear Receptor (SF1; NR5A1).; format: functional
[29] = StAR promoter reporter inhibition counter-screen, dose response, counter-screen for LRH-1 inverse agonist project, cell-based, luminescence, luciferase reporter (AID 651969); format: functional
[30] = target: Nuclear receptor subfamily 5 group A member 2 (Homo sapiens, UniProt O00482); format: functional, cell-based;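 note: HEK293T cells transfected with LRH-1 and a StAR promoter luciferase reporter; potency for inhibitors that lower LRH-1 driven reporter light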
Chain of Nuclear receptor subfamily 5 group A member 2 (O00482 whole entry): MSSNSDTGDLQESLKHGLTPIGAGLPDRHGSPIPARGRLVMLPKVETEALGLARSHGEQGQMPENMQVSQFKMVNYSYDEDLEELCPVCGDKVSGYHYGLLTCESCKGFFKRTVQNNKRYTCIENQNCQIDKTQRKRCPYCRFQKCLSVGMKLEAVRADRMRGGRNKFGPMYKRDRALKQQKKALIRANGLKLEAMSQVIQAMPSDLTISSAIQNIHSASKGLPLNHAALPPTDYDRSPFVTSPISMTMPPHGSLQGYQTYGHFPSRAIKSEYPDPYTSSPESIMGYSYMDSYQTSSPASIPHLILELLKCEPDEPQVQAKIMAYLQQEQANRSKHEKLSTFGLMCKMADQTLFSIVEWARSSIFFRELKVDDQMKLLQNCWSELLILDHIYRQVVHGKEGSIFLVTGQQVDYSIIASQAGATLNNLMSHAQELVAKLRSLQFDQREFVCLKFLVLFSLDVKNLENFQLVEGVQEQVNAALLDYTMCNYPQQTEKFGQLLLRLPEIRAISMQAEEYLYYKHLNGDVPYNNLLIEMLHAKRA

T1 sequence (Q38C91 whole entry): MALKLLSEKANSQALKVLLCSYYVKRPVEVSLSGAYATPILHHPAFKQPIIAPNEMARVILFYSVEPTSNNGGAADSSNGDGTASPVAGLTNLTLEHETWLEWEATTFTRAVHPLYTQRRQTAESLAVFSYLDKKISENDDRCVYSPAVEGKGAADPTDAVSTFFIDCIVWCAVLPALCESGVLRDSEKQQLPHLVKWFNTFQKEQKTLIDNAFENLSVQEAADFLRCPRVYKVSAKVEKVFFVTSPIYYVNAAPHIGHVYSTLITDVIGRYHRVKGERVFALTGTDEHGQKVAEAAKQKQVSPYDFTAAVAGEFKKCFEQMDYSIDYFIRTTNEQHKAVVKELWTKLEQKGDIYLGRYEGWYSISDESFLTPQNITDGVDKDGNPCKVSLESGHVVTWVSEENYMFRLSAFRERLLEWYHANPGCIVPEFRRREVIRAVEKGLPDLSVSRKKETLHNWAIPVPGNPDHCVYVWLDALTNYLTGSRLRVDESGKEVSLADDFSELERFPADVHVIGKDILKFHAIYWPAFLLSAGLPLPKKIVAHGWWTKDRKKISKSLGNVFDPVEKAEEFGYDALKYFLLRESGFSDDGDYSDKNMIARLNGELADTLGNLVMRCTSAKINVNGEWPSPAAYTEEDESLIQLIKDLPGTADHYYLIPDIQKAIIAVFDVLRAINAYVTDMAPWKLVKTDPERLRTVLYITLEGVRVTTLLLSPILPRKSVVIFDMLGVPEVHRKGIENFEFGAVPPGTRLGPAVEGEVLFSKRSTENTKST
T5 sequence (Q9P0U3 whole entry, the tested form may be a part): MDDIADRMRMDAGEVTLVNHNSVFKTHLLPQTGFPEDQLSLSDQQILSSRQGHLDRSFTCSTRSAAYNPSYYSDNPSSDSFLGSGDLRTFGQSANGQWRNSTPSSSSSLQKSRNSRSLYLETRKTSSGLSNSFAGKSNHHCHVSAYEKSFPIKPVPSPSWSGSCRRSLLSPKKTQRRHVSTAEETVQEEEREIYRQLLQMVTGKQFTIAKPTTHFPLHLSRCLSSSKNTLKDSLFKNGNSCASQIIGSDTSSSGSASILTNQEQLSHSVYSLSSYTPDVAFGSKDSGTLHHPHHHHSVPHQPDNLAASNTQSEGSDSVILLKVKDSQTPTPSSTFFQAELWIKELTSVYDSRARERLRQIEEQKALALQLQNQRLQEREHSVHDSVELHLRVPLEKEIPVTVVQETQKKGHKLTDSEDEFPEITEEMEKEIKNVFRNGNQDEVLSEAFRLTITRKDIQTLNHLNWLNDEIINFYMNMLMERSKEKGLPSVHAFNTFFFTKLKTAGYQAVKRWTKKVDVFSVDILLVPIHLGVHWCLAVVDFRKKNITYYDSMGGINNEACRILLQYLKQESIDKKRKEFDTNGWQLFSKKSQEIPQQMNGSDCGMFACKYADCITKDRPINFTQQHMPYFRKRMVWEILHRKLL
T8 sequence (P24666 whole entry): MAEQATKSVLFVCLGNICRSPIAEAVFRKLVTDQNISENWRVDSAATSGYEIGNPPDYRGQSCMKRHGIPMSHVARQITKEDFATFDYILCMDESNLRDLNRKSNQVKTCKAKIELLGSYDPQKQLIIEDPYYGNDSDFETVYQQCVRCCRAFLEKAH
Chain of Photoreceptor-specific nuclear receptor (Q9Y5X4 whole entry, the tested form may be a part): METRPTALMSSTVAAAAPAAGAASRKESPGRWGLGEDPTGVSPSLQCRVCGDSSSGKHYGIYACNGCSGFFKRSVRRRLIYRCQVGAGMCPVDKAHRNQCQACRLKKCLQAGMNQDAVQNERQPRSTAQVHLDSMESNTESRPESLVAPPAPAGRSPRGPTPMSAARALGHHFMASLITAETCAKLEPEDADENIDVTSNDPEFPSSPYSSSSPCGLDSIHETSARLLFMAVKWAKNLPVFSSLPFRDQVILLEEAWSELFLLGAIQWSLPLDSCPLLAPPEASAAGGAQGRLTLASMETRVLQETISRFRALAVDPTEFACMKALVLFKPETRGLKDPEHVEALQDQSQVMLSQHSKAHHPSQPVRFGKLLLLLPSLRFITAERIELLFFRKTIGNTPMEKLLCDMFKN
Chain of Steroidogenic factor 1 (Q13285 whole entry): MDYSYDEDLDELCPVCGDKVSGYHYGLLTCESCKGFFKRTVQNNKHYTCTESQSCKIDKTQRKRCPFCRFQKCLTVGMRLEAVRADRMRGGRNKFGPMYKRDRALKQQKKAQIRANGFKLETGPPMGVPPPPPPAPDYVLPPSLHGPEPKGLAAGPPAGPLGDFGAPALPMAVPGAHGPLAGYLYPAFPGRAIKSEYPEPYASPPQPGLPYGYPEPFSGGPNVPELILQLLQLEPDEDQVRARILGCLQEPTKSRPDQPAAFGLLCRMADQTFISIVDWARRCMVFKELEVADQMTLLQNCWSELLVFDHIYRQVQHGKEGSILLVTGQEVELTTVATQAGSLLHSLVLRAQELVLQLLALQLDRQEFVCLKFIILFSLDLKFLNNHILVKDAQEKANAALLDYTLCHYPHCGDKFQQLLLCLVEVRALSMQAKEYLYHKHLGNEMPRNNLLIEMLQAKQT
Chain of Tyrosine-protein phosphatase non-receptor type 22 (Q9Y2R2 whole entry, the tested form may be a part): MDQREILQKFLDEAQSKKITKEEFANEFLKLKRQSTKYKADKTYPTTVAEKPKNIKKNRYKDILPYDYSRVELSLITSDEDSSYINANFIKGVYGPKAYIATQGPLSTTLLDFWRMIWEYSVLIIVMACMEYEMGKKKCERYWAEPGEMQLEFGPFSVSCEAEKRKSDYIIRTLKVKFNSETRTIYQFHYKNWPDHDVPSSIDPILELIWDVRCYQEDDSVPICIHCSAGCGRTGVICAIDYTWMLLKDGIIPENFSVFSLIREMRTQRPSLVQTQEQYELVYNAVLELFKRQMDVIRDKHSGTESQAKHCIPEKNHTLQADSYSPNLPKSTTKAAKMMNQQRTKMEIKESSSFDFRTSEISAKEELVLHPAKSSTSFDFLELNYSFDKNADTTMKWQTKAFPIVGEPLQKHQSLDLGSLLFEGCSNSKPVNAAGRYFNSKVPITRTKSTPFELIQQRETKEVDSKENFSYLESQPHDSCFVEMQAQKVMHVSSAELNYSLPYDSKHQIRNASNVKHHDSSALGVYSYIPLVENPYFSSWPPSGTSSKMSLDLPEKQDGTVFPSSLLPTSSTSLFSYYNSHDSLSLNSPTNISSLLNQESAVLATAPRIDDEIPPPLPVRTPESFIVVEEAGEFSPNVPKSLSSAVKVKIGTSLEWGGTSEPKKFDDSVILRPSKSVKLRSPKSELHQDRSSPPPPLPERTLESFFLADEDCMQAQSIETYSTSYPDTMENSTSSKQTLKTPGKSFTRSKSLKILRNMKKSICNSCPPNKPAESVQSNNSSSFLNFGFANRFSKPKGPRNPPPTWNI
Chain of ADP-ribosylation factor GTPase-activating protein 1 (Q62848 whole entry): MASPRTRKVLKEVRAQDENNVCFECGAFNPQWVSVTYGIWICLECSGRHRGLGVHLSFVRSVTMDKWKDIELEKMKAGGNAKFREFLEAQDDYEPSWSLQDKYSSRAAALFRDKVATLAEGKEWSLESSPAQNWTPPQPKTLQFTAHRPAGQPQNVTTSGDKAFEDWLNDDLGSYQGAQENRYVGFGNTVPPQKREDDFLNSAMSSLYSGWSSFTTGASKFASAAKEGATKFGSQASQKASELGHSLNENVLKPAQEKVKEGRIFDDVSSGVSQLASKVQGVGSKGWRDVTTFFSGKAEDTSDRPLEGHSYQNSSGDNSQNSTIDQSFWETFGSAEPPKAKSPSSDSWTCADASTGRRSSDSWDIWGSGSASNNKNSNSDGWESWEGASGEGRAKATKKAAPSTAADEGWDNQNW

Cc1ccc2nc(SCC(=O)Nc3cccc(F)c3)nc(=O)n2c1
IC50 [1]: 44.9 µM (inactive)

CCN1C(=O)C(CC(=O)Nc2ccc(Br)cc2)N(CCCc2ccccc2)C1=S (stereo not given)
IC50 [2]: 41.5 µM (inactive) | IC50 [3]: 5.93 µM (active) | EC50 [4]: 3.15 µM (active) | EC50 (Streptokinase A): 1.98 µM (active) | EC50 [5]: 2.31 µM (active) | EC50 [6]: 15.3 µM (active) | EC50 [7]: > 60 µM (not active) | IC50 [8]: 6.6 µM (active) | IC50 [9]: 5.99 µM (not active) | EC50 (Streptococcus): 6.98 µM (active) | EC50 [10]: 16.1 µM (active) | AC50 (Cytochrome P450 1A2): 14.1 µM (inconclusive)

COc1cc2c(OC(C)=O)c3c(c(-c4ccc5c(c4)OCO5)c2cc1OC)C(=O)OC3
IC50 (Vero): 21.1 µM (active) | AC50 [11]: 1.8 µM (active) | EC50 [12]: 4.4 µM (active) | EC50 [13]: 14.4 µM (active) | IC50 [14]: 1.83 µM (active) | AC50 [15]: 1.38 µM (active) | AC50 [16]: 24.5 µM (active) | EC50 [17]: 8.65 µM (active)

CN(N=Cc1cccc2cccnc12)c1ccc([N+](=O)[O-])cc1[N+](=O)[O-]
IC50 [18]: 8.19 µM (active) | IC50 [19]: 4.08 µM (active) | EC50 [20]: 3.55 µM (active) | EC50 [21]: > 99 µM (inactive)

Cc1nccc2cc3[nH]c4ccccc4c3cc12
AC50 [22]: 2.49 µM (active) | IC50 [23]: 3.18 µM (active) | EC50 [24]: 5.87 µM (active) | EC50 [25]: > 91.2 µM (inactive) | AC50 [26]: 1.96 µM (active) | IC50 [27]: 2.59 µM (active) | IC50 [28]: 52.5 µM (inactive)

CC1(C(=O)NCc2ccc3c(c2)OCO3)CCN1C(=O)Cc1ccc(Cl)cc1Cl (stereo not given)
IC50 (Steroidogenic factor 1): 3.32 µM (active) | IC50 [29]: 35.9 µM (inactive) | IC50 [30]: 7.36 µM (active)
